These results are taken from patent publication US4610987A, “Imidazoquinazolin-2-one compounds” (Daiichi Seiyaku Co., Ltd., priority 1983, dated 1986).

Read-outs that look alike come from different tables or passages of the source.

Series [1] relates to platelet aggregation (rat platelet-rich-plasma). The series is described as follows: Test of Platelet Aggregation Inhibition (in vitro), rat PRP. The series is classed as cell-based, Wistar Imamichi rat. Particulars: Platelet, in vitro, rat blood. Here is the method:
(§1) The test was performed as follows in accordance with the method of Ashida et al, Thrombosis and Haemostasis, Vol. 40, 542 (1979).
(§2) Blood was taken by puncture from the heart of a Wistar Imamichi rat under anesthesia with pentobarbital into a syringe containing 1/10 volume of a 3.13% aqueous solution of sodium citrate dihydrate, and the citrated blood was centrifuged to obtain a platelet-rich-plasma (PRP). In the same manner, citrated blood was collected from the vein of a healthy human who had not taken aspirin or any other anti-inflammatory agent since before 10 days, followed by centrifugation to obtain PRP. 5 μl of each test compound was added to 0.445 ml of each of these PRP samples, and the system was warmed at 30° C. for 1 minute. 50 μl of an aggregation inducer (ADP or collagen) was then added thereto, and platelet aggregation was determined according to the method of Born, Nature, Vol. 194, 927 (1962).

Another series concerns platelet aggregation. The series is described as follows: Test of Platelet Aggregation Inhibition (ex vivo, p.o.). It is filed as in vivo, Wistar Imamichi rat. The conditions noted are these: Platelet, po, ex vivo, rat, 10 mg/Kg p.o., 1 hour, *P<0.05, **P<0.01, ***P<0.001. How it is done: One hour later, citrated blood was taken from the heart, and platelet aggregation was determined in the same manner as described in the in vitro test. The inhibitory activity was compared with that of control and expressed in terms of percent inhibition.

Series [2] is described as follows: Solubility Test (water-solubility).
A further series has as its target human platelet PDE III (Homo sapiens, UniProt Q14432). In words: biochemical. How it is done: (§3) Phosphodiesterase fractions were separated from 105,000×g of supernatant fractions from human platelets and heart by DEAE-cellulose column chromatography using the method of Timothy et al. (Arch. Biochem. Biophy. 196, 465-474, 1979) with minor modifications. These fractions were designated PDE I, PDE II and PDE III, depending upon the order of their emergence from the DEAE-cellulose column.
(§4) Phosphodiesterase activity was measured by the method of Thompson and Appleman (Biochemistry 10, 311-316, 1971) with slight modifications. The reaction mixture consisted of 25 mM of Tris-HCl (pH 7.4), 5 mM of MgCl2, 1 μM of [^3 H]-cAMP or cGMP (approximate 20,000 cpm), various concentrations of a test compound and the enzyme preparation. After incubation for 10 minutes at 30° C., the reaction was terminated by boiling the reaction mixture for 45 seconds. 5'-[^3 H]-AMP or GMP formed by phosphodiesterase was converted to [^3 H]adenosine or [^3 H]quanosine by snake venom (Botherop Atrox) containing 5'-nucleotidase and the product isolated by a cation exchange resin was counted in a liquid scintillation counter.

The subject of series [3] is platelet aggregation induced by B16 melanoma cells. In words: Inhibition on Platelet Aggregation Induced by Cancer Cells (in vitro), B16. The series is classed as cell-based, C57BL/6 mouse. On the set-up: key: +: Aggregation was observed.; ±: Aggregation was partially inhibited.; -: No aggregation was observed. How it is done: (§5) It is known nowadays that platelet aggregation plays an important role in metastasis of cancers. […] Tanaka et al. The effect of the compounds of this invention to inhibit the above-described cancer cell-induced platelet aggregation was tested as follows. Cell suspensions of B16 or 3LL were prepared according to the method of Tanaka et al, Invarsion and Metastasis, Vol. 2, 289 (1982). […] Platelet aggregation of the sample system was determined according to the method of Born, and the platelet aggregation inhibitory activity was expressed by the following scale: […]

Series [4] has as its system platelet aggregation induced by Lewis lung cancer (3LL) cells. In words: Inhibition on Platelet Aggregation Induced by Cancer Cells (in vitro), 3LL. The series is classed as cell-based, C57BL/6 mouse. Details: key: +: Aggregation was observed.; ±: Aggregation was partially inhibited.; -: No aggregation was observed. Here is the method:
as §5

The target of the next series is human heart PDE I. In words: Inhibitory activity on phosphodiesterase, heart PDE I (cGMP). The series is classed as biochemical. The conditions noted are these: cGMP substrate. How it is done:
as §3, §4

The target in a further series is human heart PDE III. The series is described as follows: Inhibitory activity on phosphodiesterase, heart PDE III (cAMP). It is filed as biochemical. The conditions noted are these: cAMP substrate. Here is the method: as §3, §4
Another series concerns the target human platelet PDE I (Homo sapiens, UniProt O76074). In words: Inhibitory activity on phosphodiesterase, platelet PDE I (cGMP). It is filed as biochemical. Particulars: cGMP substrate. How it is done:
as §3, §4

The subject of series [5] is platelet aggregation (human platelet-rich-plasma). The series is described as follows: Test of Platelet Aggregation Inhibition (in vitro), human PRP. It is filed as cell-based. Particulars: human blood, ADP-induced. Here is the method:
as §1, §2

Another series deals with human platelet PDE II. The series is described as follows: Inhibitory activity on phosphodiesterase, platelet PDE II (cGMP). The series is classed as biochemical. Particulars: cGMP substrate. Here is the method: as §3, §4

Sequence of human platelet PDE III (Q14432 whole entry): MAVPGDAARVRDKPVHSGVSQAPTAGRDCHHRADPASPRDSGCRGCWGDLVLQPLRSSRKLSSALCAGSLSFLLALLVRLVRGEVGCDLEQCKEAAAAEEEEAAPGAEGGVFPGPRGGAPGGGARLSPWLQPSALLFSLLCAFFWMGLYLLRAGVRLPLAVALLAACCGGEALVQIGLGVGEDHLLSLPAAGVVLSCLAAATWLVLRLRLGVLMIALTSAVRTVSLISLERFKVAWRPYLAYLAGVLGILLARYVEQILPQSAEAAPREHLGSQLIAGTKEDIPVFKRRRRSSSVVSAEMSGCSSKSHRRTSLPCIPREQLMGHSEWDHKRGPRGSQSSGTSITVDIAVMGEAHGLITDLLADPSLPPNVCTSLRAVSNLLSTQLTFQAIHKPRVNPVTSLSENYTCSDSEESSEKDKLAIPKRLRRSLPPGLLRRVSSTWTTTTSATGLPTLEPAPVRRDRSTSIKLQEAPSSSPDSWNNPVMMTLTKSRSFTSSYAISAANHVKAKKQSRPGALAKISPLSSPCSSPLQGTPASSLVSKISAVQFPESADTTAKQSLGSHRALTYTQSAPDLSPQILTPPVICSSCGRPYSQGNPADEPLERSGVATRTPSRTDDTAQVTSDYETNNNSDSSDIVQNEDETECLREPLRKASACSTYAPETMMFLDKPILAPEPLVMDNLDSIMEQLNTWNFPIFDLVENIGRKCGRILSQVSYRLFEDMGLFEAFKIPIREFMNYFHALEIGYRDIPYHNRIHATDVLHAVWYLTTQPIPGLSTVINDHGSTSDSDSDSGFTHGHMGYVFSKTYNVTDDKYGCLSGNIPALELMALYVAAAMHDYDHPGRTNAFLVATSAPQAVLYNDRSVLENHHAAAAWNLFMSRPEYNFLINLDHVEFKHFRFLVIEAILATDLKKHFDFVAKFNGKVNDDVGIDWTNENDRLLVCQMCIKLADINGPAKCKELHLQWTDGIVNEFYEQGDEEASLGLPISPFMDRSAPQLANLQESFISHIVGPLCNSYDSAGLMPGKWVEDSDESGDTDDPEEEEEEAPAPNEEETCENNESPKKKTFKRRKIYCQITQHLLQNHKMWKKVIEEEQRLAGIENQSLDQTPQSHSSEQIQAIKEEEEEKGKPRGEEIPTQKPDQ

One may read the IC50 as the concentration at which inhibition is half-maximal. By inhibition is commonly meant the relative decrease from the control value, in per cent. Take `Cl.Cl.O.O=C1CN2Cc3cc(N4CCCCC4)c(Cl)cc3N=C2N1` [Example 16, 8-Chloro-7-piperidino-1,2,3,5-tetrahydroimidazo[2,1-b] quinazolin-2-one dihydrochloride monohydrate]: the IC50 was 400 nM in [1] (ADP-induced, read-out: IC50, platelet aggregation inhibition in vitro, ADP); 460 nM in [1] (collagen-induced, read-out: IC50, platelet aggregation inhibition in vitro, Collagen); 8.2 nM on human platelet PDE III (cAMP substrate); over 10000 nM at human heart PDE I; 95 nM against human heart PDE III; 30000 nM against human platelet PDE I. The IC50 is 12500 nM in series [5] and over 30000 nM in the series with human platelet PDE II. Also, the inhibition at 10 mg/kg with platelet aggregation (ADP, read-out: ex vivo % inhibition of platelet aggregation, ADP) was 34%; in the series on platelet aggregation (collagen, read-out: ex vivo % inhibition of platelet aggregation, Collagen) it was 76%. Besides, the “water-solubility (in words)” value in [2] is recorded as “low water-solubility”. Besides, the “IC50 Ratio (PDE II) Heart/Platelet” value on human platelet PDE III was 11.6. On human platelet PDE III (Table 6), the “selectivity to platelet PDE (in words)” value is listed as “high selectivity to platelet PDE”. The figures for the “Inhibition on platelet aggregation induced by B16” value in series [3] (sample concn. 0.3 μM) and in [3] (sample concn. 1 μM) were “±” and “-”, respectively. Moreover, the results for the “Inhibition on platelet aggregation induced by 3LL” value in [4] (sample concn. 1 μM), in series [4] (sample concn. 3 μM) and in [4] (sample concn. 10 μM) were “+”, “-” and “-”, respectively.
